Patent publication US20040102622A1, “Modulation of hepatocyte growth factor receptor expression” (Isis Pharmaceuticals Inc., priority 2002, published 2004)
Strand notation (5' to 3'): a small letter for the sugar, then the base; units joined by * are phosphorothioate-linked, units joined directly phosphodiester-linked; [ ] holds rarer units or linkages, { } end groups; capitals alone tell only the bases. e = 2'-O-(2-methoxyethyl) (MOE); [5mC] = 5-methylcytosine; d = 2'-deoxy (DNA)

Tests used:
[1] = test system: human hepatocyte growth factor receptor mRNA; as to % INHIB (inhibition of human hepatocyte growth factor receptor mRNA levels): test concentration or dose not given here
[2] = test system: human hepatocyte growth factor receptor mRNA; assay: Inhibition of human hepatocyte growth factor receptor mRNA levels in T-24 cells, quantitative real-time PCR; conditions: averages from three experiments; as to % INHIB (inhibition of human hepatocyte growth factor receptor mRNA levels): test concentration or dose not given here

Row | Substance | inhibition of human hepatocyte growth factor receptor expression [1] | % INHIB (inhibition of human hepatocyte growth factor receptor mRNA levels) [2] [%]
1 | ISIS 209550: 2′-MOE gapmer, phosphorothioate backbone, sequence tgcgcgctgtagtcccagct (antisense TGCGCGCTGTAGTCCCAGCT; all phosphorothioate, sugars by position and methylation of C not given here; 2'-MOE gapmer) | at least 35% | 
2 | ISIS 155108: 2′-MOE gapmer, phosphorothioate backbone, sequence attctcgggacactaactga (antisense ATTCTCGGGACACTAACTGA; all phosphorothioate, sugars by position and methylation of C not given here; 2'-MOE gapmer) | at least 35% | 
3 | ISIS 209526: 2′-MOE gapmer, phosphorothioate backbone, sequence ttgatagggaatgcacacat (antisense TTGATAGGGAATGCACACAT; all phosphorothioate, sugars by position and methylation of C not given here; 2'-MOE gapmer) | at least 35% | 
4 | ISIS 209533: 2′-MOE gapmer, phosphorothioate backbone, sequence caccactggcaaagcaaaat (antisense CACCACTGGCAAAGCAAAAT; all phosphorothioate, sugars by position and methylation of C not given here; 2'-MOE gapmer) | at least 35% | 
5 | ISIS 155121: 2′-MOE gapmer, phosphorothioate backbone, sequence tgaaaggactttggctccca (antisense TGAAAGGACTTTGGCTCCCA; all phosphorothioate, sugars by position and methylation of C not given here; 2'-MOE gapmer) | at least 35% | 
6 | ISIS 155116: 2′-MOE gapmer, phosphorothioate backbone, sequence aaatctttcatgatgattcc (antisense AAATCTTTCATGATGATTCC; all phosphorothioate, sugars by position and methylation of C not given here; 2'-MOE gapmer) | at least 35% | 
7 | ISIS 209536: 2′-MOE gapmer, phosphorothioate backbone, sequence cctcccatactagagaagta (antisense CCTCCCATACTAGAGAAGTA; all phosphorothioate, sugars by position and methylation of C not given here; 2'-MOE gapmer) | at least 35% | 
8 | ISIS 155126: 2′-MOE gapmer, phosphorothioate backbone, sequence ctgtgcatttcaatgtattc (antisense CTGTGCATTTCAATGTATTC; all phosphorothioate, sugars by position and methylation of C not given here; 2'-MOE gapmer) | at least 35% | 
9 | ISIS 155128: 2′-MOE gapmer, phosphorothioate backbone, sequence actgtgaatttttcatccag (antisense ACTGTGAATTTTTCATCCAG; all phosphorothioate, sugars by position and methylation of C not given here; 2'-MOE gapmer) | at least 35% | 
10 | ISIS 209547: 2′-MOE gapmer, phosphorothioate backbone, sequence tcctgcttcaatttcccata (antisense TCCTGCTTCAATTTCCCATA; all phosphorothioate, sugars by position and methylation of C not given here; 2'-MOE gapmer) | at least 35% | 
11 | ISIS 209541: 2′-MOE gapmer, phosphorothioate backbone, sequence accaagtactgtaagagagg (antisense ACCAAGTACTGTAAGAGAGG; all phosphorothioate, sugars by position and methylation of C not given here; 2'-MOE gapmer) | at least 35% | 
12 | ISIS 155127: 2′-MOE gapmer, phosphorothioate backbone, sequence gatctggttgaactattact (antisense GATCTGGTTGAACTATTACT; all phosphorothioate, sugars by position and methylation of C not given here; 2'-MOE gapmer) | at least 35% | 
13 | ISIS 209539: 2′-MOE gapmer, phosphorothioate backbone, sequence gcttccccattgctgttagg (antisense GCTTCCCCATTGCTGTTAGG; all phosphorothioate, sugars by position and methylation of C not given here; 2'-MOE gapmer) | at least 35% | 
14 | ISIS 155105: 2′-MOE gapmer, phosphorothioate backbone, sequence atcaaagtatttggaaagga (antisense ATCAAAGTATTTGGAAAGGA; all phosphorothioate, sugars by position and methylation of C not given here; 2'-MOE gapmer) | at least 35% | 
15 | ISIS 209530: 2′-MOE gapmer, phosphorothioate backbone, sequence ttacaggatccacataggag (antisense TTACAGGATCCACATAGGAG; all phosphorothioate, sugars by position and methylation of C not given here; 2'-MOE gapmer) | at least 35% | 
16 | ISIS 155125: 2′-MOE gapmer, phosphorothioate backbone, sequence ggaaactgatcttctggaaa (antisense GGAAACTGATCTTCTGGAAA; all phosphorothioate, sugars by position and methylation of C not given here; 2'-MOE gapmer) | at least 35% | 

Row | Substance | inhibition of human hepatocyte growth factor receptor expression [1] | % INHIB (inhibition of human hepatocyte growth factor receptor mRNA levels) [2] [%]
17 | ISIS 155111: 2′-MOE gapmer, phosphorothioate backbone, sequence gttcggcagaatctggcttg (antisense GTTCGGCAGAATCTGGCTTG; all phosphorothioate, sugars by position and methylation of C not given here; 2'-MOE gapmer) | at least 35% | 
18 | ISIS 209524: 2′-MOE gapmer, phosphorothioate backbone, sequence ctcatgtagaatgacattct (antisense CTCATGTAGAATGACATTCT; all phosphorothioate, sugars by position and methylation of C not given here; 2'-MOE gapmer) | at least 35% | 
19 | ISIS 209525: 2′-MOE gapmer, phosphorothioate backbone, sequence ctggtccgtcaaaaacataa (antisense CTGGTCCGTCAAAAACATAA; all phosphorothioate, sugars by position and methylation of C not given here; 2'-MOE gapmer) | at least 35% | 
20 | ISIS 155097: 2′-MOE gapmer, phosphorothioate backbone, sequence cctcggtcagaaattgggaa (antisense CCTCGGTCAGAAATTGGGAA; all phosphorothioate, sugars by position and methylation of C not given here; 2'-MOE gapmer) | at least 35% | 
21 | ISIS 209534: 2′-MOE gapmer, phosphorothioate backbone, sequence agcattacttcatataaggg (antisense AGCATTACTTCATATAAGGG; all phosphorothioate, sugars by position and methylation of C not given here; 2'-MOE gapmer) | at least 35% | 
22 | 155129 (antisense eG*eA*eT*eT*eG*dG*dG*dT*d[5mC]*d[5mC]*dG*dT*dA*dA*dA*eA*eA*eT*eG*e[5mC]) [compound 155129] |  | 59
23 | 155103 (antisense eT*eG*eG*eG*eA*dA*dG*d[5mC]*dT*dG*dA*dT*dA*d[5mC]*dT*eT*e[5mC]*eA*eT*eA) [compound 155103] |  | 86
24 | 209523 (antisense eG*eG*eG*e[5mC]*e[5mC]*dT*dT*d[5mC]*dA*dT*dT*dA*dT*dG*dA*eG*eA*eG*eG*eT) [compound 209523] |  | 84
25 | 155131 (antisense e[5mC]*eA*eA*eT*eT*dT*dG*dG*d[5mC]*dA*dA*dG*dG*dA*dG*e[5mC]*eA*eA*eA*eG) [compound 155131] |  | 0
26 | 209550 (antisense eT*eG*e[5mC]*eG*e[5mC]*dG*d[5mC]*dT*dG*dT*dA*dG*dT*d[5mC]*d[5mC]*e[5mC]*eA*eG*e[5mC]*eT) [compound 209550] |  | 84
27 | 209551 (antisense e[5mC]*eT*eT*eG*eG*dG*dA*dG*dG*d[5mC]*dG*dA*dG*dT*dG*eT*e[5mC]*eA*e[5mC]*e[5mC]) [compound 209551] |  | 0
28 | 155105 (antisense eA*eT*e[5mC]*eA*eA*dA*dG*dT*dA*dT*dT*dT*dG*dG*dA*eA*eA*eG*eG*eA) [compound 155105] |  | 64
29 | 209530 (antisense eT*eT*eA*e[5mC]*eA*dG*dG*dA*dT*d[5mC]*d[5mC]*dA*d[5mC]*dA*dT*eA*eG*eG*eA*eG) [compound 209530] |  | 81
30 | 155125 (antisense eG*eG*eA*eA*eA*d[5mC]*dT*dG*dA*dT*d[5mC]*dT*dT*d[5mC]*dT*eG*eG*eA*eA*eA) [compound 155125] |  | 52
31 | 155124 (antisense eT*eA*eT*eG*eA*dT*dG*dT*d[5mC]*dT*d[5mC]*d[5mC]*d[5mC]*dA*dG*eA*eA*eG*eG*eA) [compound 155124] |  | 53
